Bounds are passed on as bounds.

As to `Cc1ccc(S(=O)(=O)OCC2Cc3cccc(Nc4ccc(C)c(C)c4)c3O2)cc1` (stereo unspecified), the melting point – broadly, the temperature, or range, at which the solid turns liquid – was in the range of 88 to 90 °C.
Under `O=C1C(c2cccc(Br)c2)n2cncc2CN1Cc1ccccn1` (stereo unspecified) stands 52 to 56 °C; under `N#Cc1ccccc1Nc1cc2c(cc1Nc1ccccc1)C(=O)NC2=O`, 115 to 117 °C; under `CCC1(CSc2ccccc2C(=O)c2ccccc2)COC(=O)N1` (racemic), 103 to 104 °C.
Take `COc1cc(OCc2ccncc2)ccc1/C=C/c1cc(/C=C/c2c[nH]c3ccccc23)n[nH]1`: the melting point was 128 to 139 °C.
The value for `CC#CCOc1ccc(S(=O)(=O)NC(C(=O)O)c2ccc(OCCN3CCCC3)cc2)cc1` (stereo unspecified) was 245 to 247 °C; that for `Cn1c(=S)ccn(C2OC(CO)C(O)C2O)c1=O` (stereo unspecified) was 146 to 148 °C.
Take `COC(=O)Cc1csc2c(OCc3cc(-c4ccc(Cl)cc4)on3)cccc12`: the melting point lay within 155 to 156 °C.
In the case of `C=C(C)C(=O)N1c2ccccc2Sc2ccc(OC)cc21`, the melting point was 91 to 92 °C.
Under `O=C(Nc1cc(F)cc2c(=O)cc(C(=O)O)oc12)c1ccc2c(c1)CC(CCCc1ccccc1)O2` (stereo unspecified) stands 183 to 185 °C; under `CCN(c1ccc(Cl)cc1C#N)S(=O)(=O)c1ccc(C)cc1`, 138 to 140 °C; under `O=C(O)c1cc(SCc2ccccc2)c(-c2ccccc2)c([N+](=O)[O-])c1`, 188 to 189 °C.
The value for `O=C(O)C1=Cc2cc(-c3ccccc3)ccc2CC1` was 208 to 209 °C.
As for `CC(=O)Nc1ccccc1CSc1nc2ccccc2[nH]1`, the melting point is 218 to 222 °C.
Molecule `COc1cc(N[C@H]2CC[C@H](NCc3ccccc3)CC2)c(Cl)cc1C(N)=O` gave a melting point of 204 to 206 °C.
The value for `CC(C)Nc1cncc(C(=NCCO[N+](=O)[O-])NC#N)c1` was 123 °C.
The molecule `CN(C)c1nc2sc3c(NCCc4c[nH]cn4)ncnc3c2c2c1CCC2(C)C` gave a melting point of 261 to 262 °C.
As for `COc1ccc(COc2ccc(N)cc2)cc1`, the melting point lay within 118 to 120 °C.
Under `CC(C)(C)c1cc(-c2nc(S)sc2-c2ccccc2)cc(C(C)(C)C)c1O` stands 168 to 171 °C.
Molecule `O=C1c2ccccc2C(=O)N1CCc1c[nH]c2ccc(Br)cc12` registered a melting point of 206 to 209 °C.
Under `N#CCCNC(=S)C1CC(CF)(CF)Oc2ccc([N+](=O)[O-])cc21` (stereo unspecified) stands 183 to 184 °C; under `O=C1Cc2cccc(S(=O)(=O)c3ccc(Cl)cc3)c2N1`, 218 to 221 °C; under `CNC(=O)CC(C)(C)c1ccc(C(=O)Nc2cn3cc(Cl)ccc3n2)cc1`, 228 to 230 °C.
The value for `C#CC[C@@H](NCCCN1C(=O)c2ccccc2C1=O)c1nc2cc(Cl)ccc2c(=O)n1Nc1ccccc1` was 78 to 80 °C; that for `COC(=O)c1sc2ccccc2c1NC(C)=O` was 178 to 180 °C.
In the case of `CCc1cc2c(cc1CCSCC(N)=O)OCO2`, the melting point was in the range of 98 to 99 °C.
Turning to `NC(=O)C(c1ccccc1)c1ccccn1` (racemic), the melting point is 134 °C.
The molecule `COC(=O)[C@H](CCSC)NC(=O)c1ccc(/C=C(/Cn2ccnc2)c2ccc(F)cc2)cc1` had a melting point of 54 to 57 °C.
The value for `COc1ncccc1C(=O)NCC1CCN(C[C@H]2COc3ccc(Cl)cc3O2)CC1` was 72 to 75 °C; that for `COc1cc2ncnc(N3CCN(C(=S)NCc4ccc([N+](=O)[O-])cc4)CC3)c2cc1OC` was 214 to 216 °C.
Regarding `CCCCCCCNC(=O)Nc1ccccc1N(C)C(=O)c1cc(C(C)(C)C)c(O)c(C(C)(C)C)c1`, the melting point lay within 193 to 196 °C.
Under `CC12CCC(C(=O)O)=CC1=CCc1cc(Cl)ccc12` (single isomer, unassigned; (-)) stands 228 to 230 °C.
Consider `O=C(Nc1ccc(OCCN2CCOCC2)c2ccccc12)c1cccc(-c2cccnc2)c1`, for which the melting point lay within 77 to 78 °C.
The value for `CCC1CCC(c2ccc(-c3cc(F)c(C(F)(F)Oc4cc(F)c(C(F)(F)F)c(F)c4)c(F)c3)c(F)c2)CC1` (stereo unspecified) was 77 °C; that for `COc1ccc2nc(-c3ccc(N)c(I)c3)sc2c1` was 179 to 181 °C; that for `Cn1c(=O)c(-c2ccccc2Cl)cc2cnc(NC3C4CN(Cc5ccccc5)CC43)nc21` (stereo unspecified) was 92 to 94 °C.
On to `CON=C(N)C(F)(F)C(O)(Cn1cncn1)c1ccc(F)cc1F` (stereo unspecified), for which the melting point was determined as 114 °C.
In turn, `COC(=O)c1cc(C(C)=O)c(OCc2ccccc2)cc1OCc1ccccc1` returned a melting point of 114 to 115 °C.
The value for `O=C(Oc1ccc(Oc2ccccc2)cc1)Oc1ccc([N+](=O)[O-])cc1` was 113 to 115 °C; that for `COc1cc(-c2nc3ccccc3n2Cc2ccccc2F)cc(OC)c1OC` was 154 °C; that for `Cc1ccc2c(NN)ccnc2c1NC(=O)c1c(Cl)cccc1Cl` was 202 to 204 °C.
On to `COc1cc2ncn([C@H](C)[C@](O)(Cn3cncn3)c3ccc(F)cc3F)c(=O)c2cc1OC`, for which the melting point is 157 to 159 °C.
The value for `CC(C)(C)N(CC(=O)O)C(=O)C(NC(=O)c1ccccc1)SC(=O)c1ccccc1` (stereo unspecified) was 157 to 160 °C.
Under `Cc1cc(-c2ccccc2)n2ncc(C(=O)c3ccccc3)c2n1` stands 165 to 166 °C; under `CCc1nnc2c(NC3CC3)nc3ccccc3n12`, 190 to 192 °C; under `COC(=O)/C=C/n1cnc2ccc(C3CC3)cc2c1=O`, 178 °C.
`NC(=O)N(O)Cc1ccc(C(O)C#Cc2cccc(Cl)c2)cc1` (stereo unspecified) registered a melting point of 118 to 119 °C.
The value for `NC(=O)c1snc(Cl)c1Cl` was 156 to 158 °C.
`O=C1CCC(c2ccccc2)(c2ccccc2)C2CN(C(Cc3ccccc3)=NCc3cccc4ccccc34)CC12` (stereo unspecified) registered a melting point of 192 °C.
The value for `CCOC(=O)c1cc2c(C=O)ccc(OCc3ccccc3)c2[nH]1` was 131 to 132 °C; that for `NCCN1CCC(Nc2nc3ccccc3n2Cc2ccccn2)C1` (stereo unspecified) was 130 °C; that for `CCCc1c(OCCCOc2ccc(C(=O)CCC(=O)O)c(F)c2)ccc(C(C)=O)c1O` was 113 to 118 °C.
On to `CCOC(=O)C1CCC(c2ccccc2)n2c(=O)n(CCl)c(=O)n21` (stereo unspecified), for which the melting point was in the range of 104 to 106 °C.
The value for `FC(F)(F)Oc1cccc(Cn2cnc3c(-c4ccco4)ncnc32)c1` was 133 to 135 °C.
Under `COC(=O)COc1ccc(CCN2CCN(c3ccncc3)CC2)cc1` stands 104 to 105 °C.
The value for `CCN(CC)CCNC(=O)c1cc(Cl)c(N)cc1OCCOC` was 108 to 110 °C.
For the molecule `CC(=O)N1CCC(C(=O)N(CCCN2CC3CN(C(=O)c4c(C)ccnc4C)CC3C2)c2ccc(C)c(Cl)c2)CC1` (stereo unspecified), the melting point was in the range of 81.5 to 83.6 °C.
In the case of `Cc1cccc(Nc2nc(N(C)C)ncc2S(=O)(=O)NC(=O)NC(C)C)c1`, the melting point is 178 to 179 °C.
Under `O=S(Cc1cccs1)c1ncc(Br)cn1` (stereo unspecified) stands 108 to 109 °C; under `Cc1ccc(N2N=CC(=NNc3cccc(-c4cccc(C(=O)O)c4)c3O)C2=O)cc1C`, 226 to 228 °C.
The value for `CCCc1noc(-c2ccc(N3CCN(C(=O)c4ccccc4C(F)(F)F)CC3)nn2)n1` was 226 °C; that for `CC(=O)SCCC(=O)N1[C@@H](c2ccccc2O)SC[C@H]1C(=O)N(c1ccccc1)[C@@H](C)C(=O)O` was 91 to 95 °C; that for `N#Cc1ccc(OCc2ccsc2)cc1F` was 63 to 65 °C.
`O=C(O)CS(=O)(=O)CCCCCNS(=O)(=O)c1ccc(Cl)cc1` returned a melting point of 193 to 194 °C.
In the case of `CCOC(=O)c1oc2ccccc2c1N=CN(C)C`, the melting point was in the range of 89 to 90 °C.
The value for `COC(=O)C1N=C(c2ccccc2F)c2cc(Cl)ccc2-n2c1cnc2C` (stereo unspecified) was 203 to 205 °C; that for `COC(=O)CCCCCCC1=CC(O)CC1=O` (stereo unspecified) was 50 to 51 °C; that for `NC(=O)Cc1c(CCN(Cc2ccccc2)Cc2ccccc2)[nH]c2ccccc12` was 135 to 136 °C.
With `CC(C)(C)OC(=O)/C(=C/c1ccccc1)C(=O)c1ccccc1O`, the melting point lay within 109 to 110 °C.
Regarding `CNC[C@@H]1c2ccccc2Oc2ccc(Cl)cc2[C@H]1C(=O)O` (relative stereo), the melting point amounted to 154 °C.
The value for `CN(CCO)C(=O)Nc1ccc2c(c1Cl)C(c1ccccc1F)=NCC(=O)N2C` was 218 to 220 °C.
In the case of `CCOC(=O)c1nc2sc(CC)c([N+](=O)[O-])c2c(=O)[nH]1`, the melting point fell in the range of 200 to 212 °C.
Under `CC(C)(C)NC(=O)Nc1ccc(-c2c[nH]c(=O)cn2)cc1` stands over 300 °C; under `COc1ccc(C2(O)C(c3ccccc3Cl)SC3=NCCCCN32)cc1OC` (stereo unspecified), 98 to 100 °C.
The value for `C=Cc1ccc2nnn(OS(=O)(=O)c3ccc(Cl)cc3)c2c1` was 125 °C; that for `COC(=O)c1nc(Cl)c(N2CCCC2)nc1N` was 245 to 248 °C; that for `COc1ccc(COC(=O)c2ccc3ccccc3c2O)cc1` was 92 to 93 °C.
Molecule `CN(CCCN=C(NC#N)c1cc(C(C)(C)C)c(O)c(C(C)(C)C)c1)CCOc1ccc2c(c1)OCO2` came in with a melting point of 129 to 130 °C.
Molecule `N=C(N)c1ccc2c(c1)C(CCNC(=O)c1ccc(-c3ccccn3)s1)CO2` (stereo unspecified) yielded a melting point of 54 to 56 °C.
Under `CCOC(=O)NC1=NN(c2cccc(Cl)c2)C(=O)C1` stands 189 °C.
Under `COC(=O)CC(=O)C[C@H]1NC(=O)[C@@H]1N1C(=O)c2ccccc2C1=O` stands 116 to 120 °C; under `NC(=O)c1[nH]c2ccc(Cl)cc2c1S(=O)(=O)c1ccccn1`, 244 to 246 °C.
Molecule `O=C1NC(=O)C(=Cc2ccc(OCCN3C(=O)SC(Cc4ccccc4)C3=O)cc2)S1` (stereo unspecified) displayed a melting point of 145 to 147 °C.
`Cc1nccn1-c1ccc(Sc2cccc(C3(C(N)=O)CCOCC3)c2)cc1` registered a melting point of 184 to 185 °C.
The value for `CCOc1ccccc1NC(N)=S` was 174 °C; that for `O=[N+]([O-])c1cnc2ccc(Cl)cc2c1Nc1ccccc1` was 174 to 175 °C.
